As a reminder, the inhibition is the share of the control response that was lost under treatment.

The values that follow come from ChEMBL document CHEMBL4732135, “Structural and mechanistic insights into the inhibition of amyloid-β aggregation by Aβ fragment derived synthetic peptides” (Eur J Med Chem, 2021).

Square brackets hold non-standard residues; d marks the D form. Peptide text beside a SMILES is read from it. Gly(cPent) = N[C@H](C(=O)O)C1CCCC1; Ala(cPr) = N[C@@H](CC1CC1)C(=O)O; NMeL = CN[C@@H](CC(C)C)C(=O)O; Abu = CC[C@H](N)C(=O)O; βAla = NCCC(=O)O

The subject of one test is PC-12. Briefly: Neuroprotective activity against amyloid beta 42-induced toxicity in rat PC-12 cells assessed as cell viability at 4 uM measured after 6 hrs by MTT assay (reference value: 74.05%). Type of test: functional. Conditions: read-out: Activity. Background: Tetrazolium dyes change colour on reduction, which living cells bring about.
`CC[C@H](NC(=O)[C@@H](NC(=O)[C@@H](NC(=O)[C@@H](N)C(C)C)C(C)C)[C@@H](C)CC)C(=O)O` (H-VVI[Abu]-OH): the viability at 4 µM came out at 73.4%.

For `CC[C@H](C)[C@H](NC(=O)[C@@H](NC(=O)[C@@H](N)C(C)C)C(C)C)C(=O)NCCC(=O)O` (H-VVI[βAla]-OH), the viability at 4 µM turned out to be 93.1%.

For `CC[C@H](NC(=O)[C@@H](NC(=O)[C@@H](N)C(C)C)C(C)C)C(=O)N[C@@H](C)C(=O)O` (H-VV[Abu]A-OH), the viability at 4 µM is 94.9%.

As to `CC(C)[C@H](N)C(=O)N[C@H](C(=O)N[C@@H](CC1CC1)C(=O)N[C@@H](C)C(=O)O)C(C)C` (H-VV[Ala(cPr)]A-OH), the viability at 4 µM was 77%.

For the compound `CC(C)[C@H](N)C(=O)N[C@H](C(=O)N[C@H](C(=O)N[C@@H](C)C(=O)O)C1CCCC1)C(C)C` (H-VV[Gly(cPent)]A-OH), the viability at 4 µM was determined as 91.9%.

Consider `CC(C)C[C@@H](C(=O)N[C@@H](C)C(=O)O)N(C)C(=O)[C@@H](NC(=O)[C@@H](N)C(C)C)C(C)C` (H-VV[NMeL]A-OH), for which the viability at 4 µM is 87.2%.

For a further test, the system named is PC-12. Briefly: Neuroprotective activity against amyloid beta 42-induced toxicity in rat PC-12 cells assessed as cell viability at 2 uM measured after 6 hrs by MTT assay (reference value: 74.05%). The format is functional. Conditions: read-out: Activity.
With `CC[C@H](NC(=O)[C@@H](NC(=O)[C@@H](NC(=O)[C@@H](N)C(C)C)C(C)C)[C@@H](C)CC)C(=O)O` (H-VVI[Abu]-OH), the viability at 2 µM came out at 77.9%.

Turning to `CC[C@H](C)[C@H](NC(=O)[C@@H](NC(=O)[C@@H](N)C(C)C)C(C)C)C(=O)NCCC(=O)O` (H-VVI[βAla]-OH), the viability at 2 µM was found to be 97.8%.

Take `CC[C@H](NC(=O)[C@@H](NC(=O)[C@@H](N)C(C)C)C(C)C)C(=O)N[C@@H](C)C(=O)O` (H-VV[Abu]A-OH): the viability at 2 µM came out at 89.1%.

For `CC(C)[C@H](N)C(=O)N[C@H](C(=O)N[C@@H](CC1CC1)C(=O)N[C@@H](C)C(=O)O)C(C)C` (H-VV[Ala(cPr)]A-OH), the viability at 2 µM amounted to 68.4%.

Take `CC(C)[C@H](N)C(=O)N[C@H](C(=O)N[C@H](C(=O)N[C@@H](C)C(=O)O)C1CCCC1)C(C)C` (H-VV[Gly(cPent)]A-OH): the viability at 2 µM stood at 85.6%.

In the case of `CC(C)C[C@@H](C(=O)N[C@@H](C)C(=O)O)N(C)C(=O)[C@@H](NC(=O)[C@@H](N)C(C)C)C(C)C` (H-VV[NMeL]A-OH), the viability at 2 µM was determined as 96.3%.

In another test the target is Amyloid-beta precursor protein (Homo sapiens) (UniProt P05067). Briefly: Inhibition of amyloid beta (1 to 42) (unknown origin) assessed as reduction in peptide aggregation at 4 uM measured after 24 hrs by thioflavin-T fluorescence assay relative to control.
Chain of Amyloid-beta precursor protein (Homo sapiens) (P05067 whole entry): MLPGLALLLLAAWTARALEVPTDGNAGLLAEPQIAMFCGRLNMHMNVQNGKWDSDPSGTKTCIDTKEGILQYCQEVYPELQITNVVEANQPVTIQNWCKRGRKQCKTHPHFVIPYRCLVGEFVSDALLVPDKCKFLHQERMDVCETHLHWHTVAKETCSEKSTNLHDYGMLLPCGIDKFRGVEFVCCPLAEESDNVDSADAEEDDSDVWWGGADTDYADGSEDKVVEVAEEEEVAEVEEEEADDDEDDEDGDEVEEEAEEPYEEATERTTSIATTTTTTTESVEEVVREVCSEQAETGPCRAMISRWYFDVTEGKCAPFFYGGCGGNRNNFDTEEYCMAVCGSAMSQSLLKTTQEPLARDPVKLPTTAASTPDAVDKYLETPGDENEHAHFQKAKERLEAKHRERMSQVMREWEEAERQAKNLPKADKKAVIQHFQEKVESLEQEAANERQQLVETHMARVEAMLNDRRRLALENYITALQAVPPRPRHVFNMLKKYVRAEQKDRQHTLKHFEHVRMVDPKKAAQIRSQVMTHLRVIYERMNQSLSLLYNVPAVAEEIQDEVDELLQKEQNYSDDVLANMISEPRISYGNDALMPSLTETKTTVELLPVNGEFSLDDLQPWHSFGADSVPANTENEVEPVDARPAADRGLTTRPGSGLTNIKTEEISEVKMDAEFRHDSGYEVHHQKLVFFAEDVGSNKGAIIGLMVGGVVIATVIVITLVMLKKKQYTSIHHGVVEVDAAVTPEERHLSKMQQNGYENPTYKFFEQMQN
Conditions: not given
On to `CC[C@H](NC(=O)[C@@H](NC(=O)[C@@H](NC(=O)[C@@H](N)C(C)C)C(C)C)[C@@H](C)CC)C(=O)O` (H-VVI[Abu]-OH), for which the inhibition stood at 2%.

`CC[C@H](C)[C@H](NC(=O)[C@@H](NC(=O)[C@@H](N)C(C)C)C(C)C)C(=O)NCCC(=O)O` (H-VVI[βAla]-OH): the inhibition stood at 0%.

Turning to `CC[C@H](NC(=O)[C@@H](NC(=O)[C@@H](N)C(C)C)C(C)C)C(=O)N[C@@H](C)C(=O)O` (H-VV[Abu]A-OH), the inhibition was 0%.

On to `CC(C)[C@H](N)C(=O)N[C@H](C(=O)N[C@@H](CC1CC1)C(=O)N[C@@H](C)C(=O)O)C(C)C` (H-VV[Ala(cPr)]A-OH), for which the inhibition is 0%.

For the compound `CC(C)[C@H](N)C(=O)N[C@H](C(=O)N[C@H](C(=O)N[C@@H](C)C(=O)O)C1CCCC1)C(C)C` (H-VV[Gly(cPent)]A-OH), the inhibition is 40.3%.

In the case of `CC(C)C[C@@H](C(=O)N[C@@H](C)C(=O)O)N(C)C(=O)[C@@H](NC(=O)[C@@H](N)C(C)C)C(C)C` (H-VV[NMeL]A-OH), the inhibition was 44.1%.

The target is the same in another test. Briefly: Inhibition of amyloid beta (1 to 42) (unknown origin) assessed as reduction in peptide aggregation at 2 uM measured after 24 hrs by thioflavin-T fluorescence assay relative to control.
Conditions: not given
`CC[C@H](NC(=O)[C@@H](NC(=O)[C@@H](NC(=O)[C@@H](N)C(C)C)C(C)C)[C@@H](C)CC)C(=O)O` (H-VVI[Abu]-OH): the inhibition was found to be 2.8%.

For `CC[C@H](C)[C@H](NC(=O)[C@@H](NC(=O)[C@@H](N)C(C)C)C(C)C)C(=O)NCCC(=O)O` (H-VVI[βAla]-OH), the inhibition was found to be 0%.

For `CC[C@H](NC(=O)[C@@H](NC(=O)[C@@H](N)C(C)C)C(C)C)C(=O)N[C@@H](C)C(=O)O` (H-VV[Abu]A-OH), the inhibition was determined as 0%.

On to `CC(C)[C@H](N)C(=O)N[C@H](C(=O)N[C@@H](CC1CC1)C(=O)N[C@@H](C)C(=O)O)C(C)C` (H-VV[Ala(cPr)]A-OH), for which the inhibition was found to be 0%.

`CC(C)[C@H](N)C(=O)N[C@H](C(=O)N[C@H](C(=O)N[C@@H](C)C(=O)O)C1CCCC1)C(C)C` (H-VV[Gly(cPent)]A-OH): the inhibition came out at 17.1%.

`CC(C)C[C@@H](C(=O)N[C@@H](C)C(=O)O)N(C)C(=O)[C@@H](NC(=O)[C@@H](N)C(C)C)C(C)C` (H-VV[NMeL]A-OH): the inhibition is 31.6%.

The target is the same in a further test. Briefly: Inhibition of amyloid beta (1 to 42) (unknown origin) assessed as reduction in peptide aggregation at 10 uM measured after 24 hrs by thioflavin-T fluorescence assay relative to control.
Conditions: not given
With `CC[C@H](NC(=O)[C@@H](NC(=O)[C@@H](NC(=O)[C@@H](N)C(C)C)C(C)C)[C@@H](C)CC)C(=O)O` (H-VVI[Abu]-OH), the inhibition stood at 32.5%.

On to `CC[C@H](C)[C@H](NC(=O)[C@@H](NC(=O)[C@@H](N)C(C)C)C(C)C)C(=O)NCCC(=O)O` (H-VVI[βAla]-OH), for which the inhibition was found to be 13%.

Regarding `CC[C@H](NC(=O)[C@@H](NC(=O)[C@@H](N)C(C)C)C(C)C)C(=O)N[C@@H](C)C(=O)O` (H-VV[Abu]A-OH), the inhibition came to 4.4%.

For the compound `CC(C)[C@H](N)C(=O)N[C@H](C(=O)N[C@@H](CC1CC1)C(=O)N[C@@H](C)C(=O)O)C(C)C` (H-VV[Ala(cPr)]A-OH), the inhibition is 0%.

Regarding `CC(C)[C@H](N)C(=O)N[C@H](C(=O)N[C@H](C(=O)N[C@@H](C)C(=O)O)C1CCCC1)C(C)C` (H-VV[Gly(cPent)]A-OH), the inhibition is 47.8%.

Regarding `CC(C)C[C@@H](C(=O)N[C@@H](C)C(=O)O)N(C)C(=O)[C@@H](NC(=O)[C@@H](N)C(C)C)C(C)C` (H-VV[NMeL]A-OH), the inhibition is 61%.

The next test concerns PC-12. Briefly: Neuroprotective activity against amyloid beta 42-induced toxicity in rat PC-12 cells assessed as cell viability at 10 uM measured after 6 hrs by MTT assay (reference value: 74.05%). The format is functional. Conditions: read-out: Activity.
As for `CC[C@H](NC(=O)[C@@H](NC(=O)[C@@H](NC(=O)[C@@H](N)C(C)C)C(C)C)[C@@H](C)CC)C(=O)O` (H-VVI[Abu]-OH), the viability at 10 µM amounted to 65.6%.

For `CC[C@H](C)[C@H](NC(=O)[C@@H](NC(=O)[C@@H](N)C(C)C)C(C)C)C(=O)NCCC(=O)O` (H-VVI[βAla]-OH), the viability at 10 µM worked out at 87.3%.

Consider `CC[C@H](NC(=O)[C@@H](NC(=O)[C@@H](N)C(C)C)C(C)C)C(=O)N[C@@H](C)C(=O)O` (H-VV[Abu]A-OH), for which the viability at 10 µM turned out to be 89.2%.

Regarding `CC(C)[C@H](N)C(=O)N[C@H](C(=O)N[C@@H](CC1CC1)C(=O)N[C@@H](C)C(=O)O)C(C)C` (H-VV[Ala(cPr)]A-OH), the viability at 10 µM was found to be 65.9%.

With `CC(C)[C@H](N)C(=O)N[C@H](C(=O)N[C@H](C(=O)N[C@@H](C)C(=O)O)C1CCCC1)C(C)C` (H-VV[Gly(cPent)]A-OH), the viability at 10 µM came out at 84.2%.

For `CC(C)C[C@@H](C(=O)N[C@@H](C)C(=O)O)N(C)C(=O)[C@@H](NC(=O)[C@@H](N)C(C)C)C(C)C` (H-VV[NMeL]A-OH), the viability at 10 µM worked out at 84.8%.
